The structures appear in SMILES notation.

A word on the EC50: it is the concentration at which the effect is half-maximal.

The target in the assay is T1, human cloned CHRM5 receptor (Homo sapiens, UniProt P08912).
T1 construct: expressed in transfected cells; host or cells: CHO (M5_CHO)
T1 sequence (P08912 1-532): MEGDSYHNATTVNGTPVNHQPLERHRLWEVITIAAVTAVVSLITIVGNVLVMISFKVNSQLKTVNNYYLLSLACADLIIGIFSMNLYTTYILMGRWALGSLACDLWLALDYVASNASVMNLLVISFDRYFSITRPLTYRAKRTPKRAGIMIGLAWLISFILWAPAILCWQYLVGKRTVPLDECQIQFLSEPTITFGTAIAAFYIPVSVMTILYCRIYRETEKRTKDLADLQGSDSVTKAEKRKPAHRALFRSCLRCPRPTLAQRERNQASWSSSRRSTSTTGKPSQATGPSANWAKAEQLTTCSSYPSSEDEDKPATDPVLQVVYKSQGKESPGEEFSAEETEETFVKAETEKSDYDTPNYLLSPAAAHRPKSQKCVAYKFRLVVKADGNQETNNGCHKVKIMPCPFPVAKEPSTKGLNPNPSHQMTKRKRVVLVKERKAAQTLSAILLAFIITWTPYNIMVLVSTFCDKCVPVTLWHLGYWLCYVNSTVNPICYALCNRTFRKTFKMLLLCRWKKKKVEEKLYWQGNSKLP
The assay is described as follows: CHRM5 Ca++ Flux Assay (M5_CHO cells, agonist mode). In kind it is cell-based. The settings on record: for Emax: Percent Activity (PA) measured to EC100 of Carbachol, read-out: M5 FDSS PA %; for EC50: agonist mode, geometric mean if tested more than once, read-out: M5 FDSS EC50. Summed up:
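Agonist-mode calcium mobilisation: compounds, 11 concentrations in triplicate, applied to stable M3_CHO or M5_CHO cells loaded with Ca++ dye, fluorescence followed 3 min. Efficacy expressed against carbachol EC100; EC curves by four-parameter nonlinear regression, geometric mean across independent runs.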

For the compound `Cc1cc(COc2ccc(F)cc2C2CCN([C@@H]3COC4(C3)CN(c3nnco3)C4)CC2)on1` [Example 2G, (S)-7-(4-(5-fluoro-2-((3-methylisoxazol-5-yl)methoxy)phenyl)piperidin-1-yl)-2-(1,3,4-oxadiazol-2-yl)-5-oxa-2-azaspiro[3.4]octane], the Emax amounted to 0% and the EC50 is above 25 µM.

For the compound `Fc1ccc(OC2CCOCC2)c(C2CCN([C@@H]3COC4(C3)CN(c3ncon3)C4)CC2)c1` [Example 6A, (S)-7-(4-(5-fluoro-2-((tetrahydro-2H-pyran-4-yl)oxy)phenyl)piperidin-1-yl)-2-(1,2,4-oxadiazol-3-yl)-5-oxa-2-azaspiro[3.4]octane], the Emax amounted to 0% and the EC50 was above 25 µM.

In the case of `Fc1cc(O[C@@H]2CCOC2)c(C2CCN([C@@H]3COC4(C3)CN(c3nnco3)C4)CC2)cc1F` [Example 1R, (S)-7-(4-(4,5-difluoro-2-(((R)-tetrahydrofuran-3-yl)oxy)phenyl)piperidin-1-yl)-2-(1,3,4-oxadiazol-2-yl)-5-oxa-2-azaspiro[3.4]octane], the Emax was determined as 0% and the EC50 was above 25 µM.

With `Fc1ccc(OC[C@H]2CCOC2)c(C2CCN([C@@H]3COC4(C3)CN(c3nnco3)C4)CC2)c1` [Example 1I, (S)-7-(4-(5-fluoro-2-(((S)-tetrahydrofuran-3-yl)methoxy)phenyl)piperidin-1-yl)-2-(1,3,4-oxadiazol-2-yl)-5-oxa-2-azaspiro[3.4]octane], the Emax came to 0% and the EC50 is above 25 µM.

As for `Fc1ccc(OC2COC2)c(C2CCN([C@@H]3COC4(C3)CN(c3ncon3)C4)CC2)c1` [Example 6B, (S)-7-(4-(5-fluoro-2-(oxetan-3-yloxy)phenyl)piperidin-1-yl)-2-(1,2,4-oxadiazol-3-yl)-5-oxa-2-azaspiro[3.4]octane], the Emax is 0% and the concentration giving a half-maximal response (EC50) is above 25 µM.

The values are drawn from patent US11485742B2, “2-azaspiro[3.4]octane derivatives as M4 agonists” (NOVARTIS AG, priority 2019, dated 2022).
